Where “and” joins values, the source holds several entries; their conditions need not be identical. Equal values may be shown once. Read-outs that look alike come from different tables or passages of the source.
B1: PEG-ASNase: asparaginase conjugated with polyethylene glycol (PEG); sold under the name ONCASPAR by Rhône-Poulenc Rorer (conjugate, UniProt P00805 23-348, looked up)
L-asparaginase 2: LPNITILATGGTIAGGGDSATKSNYTVGKVGVENLVNAVPQLKDIANVKGEQVVNIGSQDMNDNVWLTLAKKINTDCDKTDGFVITHGTDTMEETAYFLDLTVKCDKPVVMVGAMRPSTSMSADGPFNLYNAVVTAADKASANRGVLVVMNDTVLDGRDVTKTNTTDVATFKSVNYGPLGYIHNGKIDYQRTPARKHTSDTPFDVSKLNELPKVGIVYNYANASDLPAKALVDAGYDGIVSAGVGNGNLYKSVFDTLATAAKTGTAVVRSSRVPTGATTQDAEVDDAKYGFVASGTLNPQKARVLLQLALTQTKDPQQIQQIFNQY
modifications: PEG conjugate (pegaspargase)
notes: asparaginase conjugated with polyethylene glycol (PEG); sold under the name ONCASPAR by Rhône-Poulenc Rorer

Experiments:
[1] = system: HIV-RNA in supernatant of HIV-1 infected CEM/0 T-cells; assay: HIV-1 quantitative RNA assay (HIV-1 Monitor) in supernatants of CEM/0 T-cells; format: cell-based; design: inhibition of HIV-RNA in the supernatants in comparison to untreated control / % OF CONTROL / % control: concentration or dose not given beside the values; details: for N*: day 7 post Rx, PEG 0.400 IU/ml, SAQ 25 uM, AZT 1 uM, combinations PEG 0.233 IU/ml + SAQ 14.52 uM; for inhibition of HIV-RNA in the supernatants in comparison to untreated control: Experiment 6 text; for % control / MEAN N: Table 3; for Log 10 N: Table 3, per flask
Description: It should be noted that “PEG” in Table 3 represents PEG-ASNase.
Materials and Methods: The cell line used for these studies is CEM/0, a human T-cell leukemic cell line. PEG-ASNase (ONCASPAR) is provided by Rhone-Poulenc Rorer. Saquinavin is commercially available. AZT is purchased from Sigma. MISID, a ribonucleotide reductase inhibitor, is as described in Nandy P, Lien E J, Avramis V I, Med. Chem. Res. 1995, 5:664-679. RPMI-1640 media (Irvine Scientific, Irvine, Calif.), is enriched with 10% Fetal Calf Serum (Gemini Biosource, Calabasas, Calif.), 5% 1M Hepes Buffer solution and 5% Non-essential amino acids (Irvine Scientific, Irvine, Calif.). The drug concentrations used are as follows:
(§1) Briefly, 3×10^6 cells/ml are stimulated with PHA+ media for 48 hours at 37° C. with 5% CO2. Also, the same number of cells are incubated in PHA free media for 48 hours to serve as the negative control. At this point the cells are inoculated with the HIV-1 virus as per standard protocol. Note that in this experiment, the HIV containing supernatant from the PHA-stimulated healthy human peripheral mononuclear cells (PBMC) is not removed from the PHA-stimulated CEM/0 cell culture. […] These virus particles are continuously released by already infected T-cells and/or lymph nodes of patients.
The experimental drugs are added to the cells in the appropriate concentrations at the same time as viral inoculation or 90 minutes after the viral incubation, a time sufficient for the T-cells to be infected and start producing new HIV-1 virus particles. The control cells are resuspended in drug-free media for the duration of the exposure which lasted seven days. Aliquots of media from the control flasks only are obtained on day 5 post Rx. At day seven, three 1 ml each, aliquots of media are removed from the flasks and stored under liquid nitrogen. In addition, the remaining cells are split into three and then pelleted and stored at −80° C. Supernatant specimens are obtained form these T-cell cultures and are frozen at −80° C. The samples produced from this experiment are itemized. The cell pellets of the cellular cultures (see Experiment 9) from the 90 minute viral incubation flasks are assayed for HIV-RNA quantitative assay using a kit for the assay, non-radioactive. […] The standard curve is determined and the HIV-RNA levels for the experimental samples are calculated and reported previously.
This experiment is carried out using a similar procedure, and the same concentrations of materials as in Experiment 10, however the exposure of HIV-RNA in T-cell supernatants to a combination of PEG-ASNase, Saquinavir, AZT and 3TC is measured. It should be noted that “PEG” in Table 10 represents PEG-ASNase.

[2] = system: HIV-RT in supernatants of HIV-1 infected CEM/0 T-cells; assay: HIV-RT ELISA in supernatants of HIV-1 infected CEM/0 T-cells; format: cell-based; details: for inhibition of HIV-RT in supernatants: Experiment 8 text, day 7; for HIV-RT (negative values set to 0): Table 6, per specimen
Protocol: The following is a general procedure for the HIV-reverse transcriptase assay:
Materials and Methods: The cell line used for this experiment is CEM/0, a human T-cell leukemic cell line. PEG-ASNase (ONCASPAR) is provided by Rhone-Poulenc Rorer. Saquinavin (SQ) is commercially available. AZT is purchased from Sigma. […] The drug concentrations used are as follows:
as §1, with “from the […] healthy human” for “from the PHA-stimulated healthy human”, “particles are released by” for “particles are continuously released by”
The experimental drugs are added to the cells in the appropriate concentrations at the same time as viral inoculation or 90 minutes after the viral incubation, a time sufficient for the T-cells to be infected and start producing new HIV-1 virus particles. The control cells are resuspended in drug-free media for the duration of the exposure which lasted seven days. Aliquots of media from the control flasks only are obtained on day 5 post Rx. At day seven, three 1 ml each, aliquots of media are removed from the flasks and stored under liquid nitrogen. In addition, the remaining cells are split into three and then pelleted and stored at −80° C.

CEM/0 cells = assay: Sequential and concurrent combination cytotoxicity of PEG-ASNase and Saquinavir; format: cell-based, human; details: CEM/0 T-cells
Protocol: In this experiment, the described range of concentrations is used to investigate the combined regimen of Saquinavir and PEG-ASNase. For the sequential combination studies of PEG-ASNase followed by Saquinavir, cells are incubated with the concentrations provided below of PEG-ASNase for 24 hours. Then Saquinavir, in the concentrations provided below, is added to the appropriate cells for an additional twenty-four (24) hours, bringing the total exposure time to forty-eight (48) hours. The exposure involved 2×10^5 cells/ml being incubated in a tissue culture flask with concentrations of the drugs investigated as provided below. […] The drug concentrations used are as follows:
In all in vitro studies, the negative control cells are incubated in a drug-free media for the same duration and under the same conditions as the experimental samples. Cell density is measured via cell counting using a Coulter Counter coupled with a Coulter Channelyzer for each of the experimental flasks at 24, 48 and 72 hours after incubation. Additionally, Trypan Blue Exclusion tests are performed for each of these experimental conditions. Cell numbers are corrected for the viability determined by the Trypan Blue test and presented as a percentage of the untreated control.
The reverse sequence is also tested. […] Saquinavir is administered and the cells incubated for twenty-four (24) hours followed by addition of PEG-ASNase and an additional incubation period of twenty-four (24) hours, bringing the total exposure time to forty-eight (48) hours. Other than the drug sequence, the methodology is the same as that mentioned immediately above. The concurrent combination regimen is also tested using the same methodology. […] The concurrent combined methodology experiment had the samples exposed to forty-eight (48) hours of concurrent combined exposure.

Molecule	MEAN ([1]; Table 8) [copies/mL]	% OF CONTROL ([1]; Table 8 and Experiment 10) [%]	MEAN ([1]; Table 10) [copies/mL]	% OF CONTROL ([1]; Table 10 and Experiment 11)	inhibition of HIV-RT in supernatants [2]	HIV-RT (negative values set to 0) [2] [pg/well]	inhibition of HIV-RNA in the supernatants in comparison to untreated control [1]	% control [1] [%]	MEAN N [1] [copies/mL]	also measured
Cc1cn([C@H]2C[C@H](N=[N+]=[N-])[C@@H](CO)O2)c(=O)[nH]c1=O [AZT, zidovudine]	120691	61.74	1437	32.48%	Great inhibition	0	–	–	–	N* ([1]; Table 8, per specimen, 90 min viral inoculation, MISID 0.685 uM): 120981 copies/mL and 121288 copies/mL and 119805 copies/mL; N* ([1]; Table 10, per specimen, 3TC 1 uM): 1203 copies/mL and 1409 copies/mL and 1700 copies/mL
CC(C)(C)NC(=O)[C@@H]1C[C@@H]2CCCC[C@@H]2CN1C[C@@H](O)[C@H](Cc1ccccc1)NC(=O)[C@H](CC(N)=O)NC(=O)c1ccc2ccccc2n1 [Saquinavir]	124762	63.82	2438	approximately 55%	Great inhibition	0	~68%	32.38	42100	IC50 (CEM/0 cells; Homo sapiens, CCRF-CEM, read-out: IC50 in combination, Saquinavir part, concurrent combination of PEG-ASNase and Saquinavir): 14.5 µM; IC50 (CEM/0 cells; read-out: IC50 in combination, Saquinavir part, concurrent combination of PEG-ASNase and Saquinavir, listed as SAQ): 14.5 µM; Log 10 N ([1]; listed as SAQ): 4.61 and 4.60 and 4.66; N* ([1]; Table 8, per specimen, 90 min viral inoculation, MISID 0.685 uM, listed as SAQ): 122515 copies/mL and 128455 copies/mL and 123316 copies/mL; N* ([1]; Table 10, per specimen, 3TC 1 uM, listed as SAQ): 2816 copies/mL and 2375 copies/mL and 2122 copies/mL; % OF CONTROL ([1]; Table 10 and Experiment 11, listed as SAQ): 55.08%
B1	143761	73.54	3233	~73%	–	0	approximately 60%	40.78	53020	IC50 in combination, PEG-ASNase part (CEM/0 cells; concurrent combination of PEG-ASNase and Saquinavir): 0.233 IU/ml; IC50 in combination, PEG-ASNase part (CEM/0 cells; concurrent combination of PEG-ASNase and Saquinavir, listed as PEG): 0.23 IU/ml; Log 10 N ([1]; listed as PEG): 4.71 and 4.72 and 4.73; N* ([1]; Table 8, per specimen, 90 min viral inoculation, MISID 0.685 uM, listed as PEG): 147041 copies/mL and 142575 copies/mL and 141667 copies/mL; N* ([1]; Table 10, per specimen, 3TC 1 uM, listed as PEG): 3132 copies/mL and 3048 copies/mL and 3520 copies/mL; % OF CONTROL ([1]; Table 10 and Experiment 11, listed as PEG): 73.06%
